In ChEMBL document CHEMBL1201862, “PubChem BioAssay data set” (2004):
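48-hour exposure; five concentrations; linearly interpolated endpoints. GI50 is the concentration that inhibits growth by half.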 Active and inactive are the calls of the source. Rule as the data show it: active = GI50 up to about 1.1 µM and inactive = higher.

Tests used:
Assay in all cases: growth of human tumour cells (NCI), 48 h
[1] = test system: IGROV-1
[2] = test system: HOP-62
[3] = test system: OVCAR-5
[4] = test system: MDA-MB-435
[5] = test system: SK-MEL-28
[6] = test system: 786-0
[7] = test system: SK-OV-3
[8] = test system: ACHN
[9] = test system: SF-268
[10] = test system: MOLT-4
[11] = test system: SNB-75
[12] = test system: MCF7
[13] = test system: K562
[14] = test system: BT-549
[15] = test system: NCI-H226
[16] = test system: SK-MEL-2
[17] = test system: CCRF-CEM
[18] = test system: TK-10
[19] = test system: NCI-H522

SMILES | GI50 [1] | GI50 [2] | GI50 [3] | GI50 [4] | GI50 [5] | GI50 [6] | GI50 [7] | GI50 [8] | GI50 [9] | GI50 [10] | GI50 [11] | GI50 [12] | GI50 [13] | GI50 [14] | GI50 [15] | GI50 [16] | GI50 [17] | GI50 [18] | GI50 [19]
COC(=O)c1ccc(NCc2cc(O)ccc2O)cc1O | 8.97 µM (inactive) | 10.9 µM (inactive) | 16.7 µM (inactive) | 11.1 µM (inactive) | 16.4 µM (inactive) | 8.07 µM (inactive) | 13.9 µM (inactive) | 9.68 µM (inactive) | 7.29 µM (inactive) | 2.09 µM (inactive) | 3.08 µM (inactive) | 6.67 µM (inactive) | 4.1 µM (inactive) | 3.44 µM (inactive) | 14 µM (inactive) | 16.4 µM (inactive) | 0.877 µM (active) | 16.7 µM (inactive) | 0.405 µM (active)
CC/C(=N\NC(=O)c1cccnc1)c1ccc2c(c1)OCCO2 | > 100 µM (inactive) | > 100 µM (inactive) | > 100 µM (inactive) | 34.5 µM (inactive) | > 100 µM (inactive) | > 100 µM (inactive) | > 100 µM (inactive) | > 100 µM (inactive) | > 100 µM (inactive) | > 100 µM (inactive) | > 100 µM (inactive) | 66.5 µM (inactive) | 76 µM (inactive) | > 100 µM (inactive) | > 100 µM (inactive) | > 100 µM (inactive) | > 100 µM (inactive) | > 100 µM (inactive) | 29.1 µM (inactive)
CC1=NN2C(=N)/C(=C/c3ccco3)C(=O)N=C2S1 | > 100 µM (inactive) | > 100 µM (inactive) | > 100 µM (inactive) | > 100 µM (inactive) | > 100 µM (inactive) | > 100 µM (inactive) | > 100 µM (inactive) | > 100 µM (inactive) | > 100 µM (inactive) | > 100 µM (inactive) | > 100 µM (inactive) | > 100 µM (inactive) | > 100 µM (inactive) | > 100 µM (inactive) | > 100 µM (inactive) | > 100 µM (inactive) | > 100 µM (inactive) | > 100 µM (inactive) | 1.15 µM (inactive)
COC(=O)c1ccccc1C1CN=NC12Cc1c(C)c3c(c(C)c1C2=O)CCC3 (centres undefined) | > 100 µM (inactive) | 77.4 µM (inactive) | > 100 µM (inactive) | > 100 µM (inactive) | > 100 µM (inactive) | 76.9 µM (inactive) | > 100 µM (inactive) | > 100 µM (inactive) | > 100 µM (inactive) | > 100 µM (inactive) | 40.6 µM (inactive) | > 100 µM (inactive) | > 100 µM (inactive) | > 100 µM (inactive) | > 100 µM (inactive) | > 100 µM (inactive) | > 100 µM (inactive) | 2.48 µM (inactive) | 33.7 µM (inactive)
COC(=O)c1cccc2c1Oc1ccccc1S2 | 56.2 µM (inactive) | > 100 µM (inactive) | 73.8 µM (inactive) | > 100 µM (inactive) | 96.8 µM (inactive) | 42.9 µM (inactive) | > 100 µM (inactive) | 61.2 µM (inactive) | 38.8 µM (inactive) | 24.5 µM (inactive) | 24.1 µM (inactive) | 37.2 µM (inactive) | 57.9 µM (inactive) | 60.3 µM (inactive) | 37.4 µM (inactive) | > 100 µM (inactive) | 23.4 µM (inactive) | > 100 µM (inactive) | 27.1 µM (inactive)
Cc1cc(S(=O)(=O)Nc2nc(N)n[nH]2)c(S)cc1Cl | > 10 µM (inactive) | > 10 µM (inactive) | > 10 µM (inactive) | > 10 µM (inactive) | > 10 µM (inactive) | > 10 µM (inactive) | > 10 µM (inactive) | > 10 µM (inactive) | > 10 µM (inactive) | > 10 µM (inactive) | > 10 µM (inactive) | > 10 µM (inactive) | > 10 µM (inactive) | > 10 µM (inactive) | > 10 µM (inactive) | > 10 µM (inactive) | > 10 µM (inactive) | > 10 µM (inactive) | > 10 µM (inactive)
